This is an account of results in patent US20230392180A1, “MICROSCOPIC IMAGING AND ANALYSES OF EPIGENETIC LANDSCAPE” (Sanford Burnham Prebys Medical Discovery Institute, priority 2020, published 2023).

Where a name gives a salt, the structure may show the parent alone.

The test system of one data set is primary human fNPCs. The data set can be described thus: MIEL-EpiTox of ToxCast Phase I/II+elk library compounds. The settings on record: 10 μM, 72 h, H3K27ac and H3K27me3. The procedure:
Cells were treated with test compounds, then fixed and immunolabeled for epigenetic marks. The pattern of marks within each nucleus was analyzed to create multivariate signatures or “fingerprints” of each perturbation. Since the technique analyzes texture features rather than intensities and morphologies, culturing and immunostaining artifacts are reduced. MIEL is related to “cell painting”, in which multivariate analysis of multiplexed biomarkers was used to classify protein localization, cell subpopulations, and drug mechanisms of action. The multiparametric signatures of the cells (centroids) were plotted in 2D via multidimensional scaling (MDS), and support vector machine (SVM) classification was used to establish borders to divide the epigenetic signatures into distinct classes. MIEL was employed to probe the presence of epitoxic compounds in the EPA ToxCast Phase I/II+elk library and examined the effects of 352 compounds on primary human fNPCs (Thermo-Fisher, #A15654). Cells were incubated with 10 μM compound for 72 h, labeled with fluorescence-tagged antibodies to H3K27ac and H3K27me3, and imaged on a Vala Sciences IC200 cytometer. Features were derived using Acapella (Perkin Elmer) high-content imaging and analysis software. SVM classification was conducted as previously described. […] The same criteria were applied to determine toxicity.

For data set [1] the following is noted: cited from earlier work.
The conditions of data set [2]: single report; cited from earlier work.
A further data set has as its system GBM2 cells. Put plainly: Sensitization to radiation or TMZ. In kind it is cell-based, human. The following applies: 200 uM, 4 days. As for the experimental part: Sensitization to radiation or TMZ: Cells were plated at 1500 cells/well in 384-well optical bottom assay plates (PerkinElmer). Two sets of the experiment were prepared; DMSO (0.1%) was used for negative controls at 48 DMSO replicates per plate; 3 replicates (wells) were treated per compound. Cells in both sets were pre-treated with epigenetic compounds for 2 days prior to cytotoxic treatment. Cytotoxic treatment, either 200 uM temozolomide (TMZ, Sigma) or 1 Gy x-ray radiation (RS2000; RAD Source) was carried out for 4 days on single set (‘treatment set’); for TMZ treatment, DMSO control was given to the second set. A single radiation dose was given at day 3; TMZ was given twice at days 3 and 5 of the experiment. Cells were fixed, stained with DAPI, and scored using an automated microscope (Celigo; Nexcelom Bioscience). For each compound, fold change in cell number was calculated for both the “treatment set” (Drug+Cytotox) and the “control set” (Drug), compared to DMSO-treated wells in the control set. The effect of radiation or TMZ alone was calculated as fold reduction of DMSO-treated wells in the treatment set compared to DMSO-treated wells in the control set (Cytotox). The coefficient of drug interaction (CDI) was calculated as […]. […]

Data set [3] can be described thus: Exposure estimated from publicly available information. The following applies: women, estimating 50-75 kg body weight.

Turning to `CCCCOC(=O)COc1ccc(Cl)cc1Cl` [2,4-D 1-butyl ester], in the data set on primary human fNPCs, the “MIEL-EpiTox class (epitoxic, cytotoxic, inert)” value is recorded as “epitoxic hits producing the largest epigenetic perturbations”.

`Cc1sc2c(c1C)C(c1ccc(Cl)cc1)=N[C@@H](CC(=O)Nc1ccc(O)cc1)c1nnc(C)n1-2` [OTX015]: in data set [1] (doses achieving biologically active levels), the “toxicity in clinical trials” value was “low toxicity”. Moreover, in data set [1] (in vivo), the clinical benefits entry was “no detectable clinical benefits”. Also, in data set [2], the “interaction with TMZ” value is listed as “synergy”.

On to `Cn1nnc2c(C(N)=O)ncn2c1=O` [TMZ, temozolomide], for which the “reduction in cell numbers” value with GBM2 cells came out at 50%. `C[C@@H]1C[C@H]2[C@@H]3CCC4=CC(=O)C=C[C@]4(C)[C@@]3(F)[C@@H](O)C[C@]2(C)[C@@]1(O)C(=O)COS(=O)(=O)O` [dexamethasone sulfate]: the “estimated concentrations reached following repeated administration” value in data set [3] is ~10 µM.
